From publication PMC12261219, “Comparative Evaluation of Thiol- and Amine-Conjugating Moieties for Endogenous Albumin Binding after Intravenous Administration” (ACS Pharmacology & Translational Science, 2025)
Values joined by “and” are separate entries in the source; they are usually repeats but may differ in a detail not shown here. Equal entries are not always repeated.

Assays:
[1] = Hydrolytic stability in buffer (HPLC); type: physicochemical; conditions: 0.5 mM
Method: The samples were incubated at 20 °C and measured over 25 h. Reversed phase high-performance liquid chromatography (RP-HPLC) runs were performed using a Waters Acquity UPLC BEH C18 column (130 Å, 1.7 μm, 3 mm × 50 mm) on a Dionex Thermo Scientific UltiMate 3000 HPLC system, equipped with a HPG-3400RS binary pump and a DAD-3000 UV–vis detector. Chromatograms were evaluated at a wavelength of 220 nm. Milli-Q water (mobile phase A) and acetonitrile (mobile phase B), both containing 0.1% TFA, were used as eluents. The flow rate was consistent at 0.6 mL/min for all measurements using the following gradient: 0–0.5 min A 95:5 B, 0.5–5.5 min linear gradient to A 5:95 B, 5.5–6.5 min A 5:95 B, 6.5–9.2 min A 95:5 B. The same conditions were applied for stability measurements in 100 mM PB at pH 5.5 and 6.5 as well as in 20 mM HEPES and MOPS at pH 7.4. RP-HPLC-MS analyses of the same samples after the stability measurements were conducted on a Waters Acquity UPLC BEH C18 column (130 Å, 1.7 μm, 3 mm × 50 mm) on an Agilent 1260 Infinity II system equipped with a Flexible pump, a 1260 VWD UV–vis detector and the LC–MSD system. Chromatograms were evaluated at a wavelength of 220 nm. Milli-Q water (mobile phase A) and acetonitrile (mobile phase B), both containing 0.1% formic acid, were used as eluents. The flow rate was consistent at 0.6 mL/min for all measurements using the following gradient: 0–0.5 min A 95:5 B, 0.5–6.0 min linear gradient to A 5:95 B, 6.0–7.0 min A 5:95 B, 7.0–7.1 min linear gradient to A 95:5 B, 7.1–8.0 min A 95:5 B.

[2] = Reduction with ascorbic acid, release of oxaliplatin (HPLC); type: physicochemical; conditions: 0.5 mM, 150 mM PB, pH 7.4, 20 °C, 30 eq. ascorbic acid
Method: The samples were incubated at 20 °C and measured over 25 h. […] RP-HPLC runs were performed using a Waters Acquity UPLC HSS T3 column (100 Å, 1.8 μm, 3.0 mm × 50 mm) on a Dionex Thermo Scientific UltiMate 3000 HPLC system, equipped with a HPG-3400RS binary pump and a DAD-3000RS UV–vis detector. Chromatograms were evaluated at a wavelength of 230 nm. Milli-Q water (mobile phase A) and acetonitrile (mobile phase B), both containing 0.1% TFA, were used as eluents. The flow rate was consistent at 0.6 mL/min for all measurements using the following gradient: 0–0.5 min A 99:1 B, 0.5–5.5 min linear gradient to A 1:99 B, 5.5–6.5 min A 1:99 B, 6.5–9.2 min A 99:1 B.

albumin (mouse serum) = biological target: T1, albumin (mouse serum) (Mus musculus, UniProt P07724); experiment: SEC-ICP-MS albumin binding in mouse serum; type: in vitro ADME; conditions: 100 µM, 37 °C
T1 construct: The serum was separated by centrifugation (two times 10 min at 900 g) after 10–20 min clotting at room temperature; from tissue; host or cells: serum of Balb/c mice
T1 sequence (P07724 25-608): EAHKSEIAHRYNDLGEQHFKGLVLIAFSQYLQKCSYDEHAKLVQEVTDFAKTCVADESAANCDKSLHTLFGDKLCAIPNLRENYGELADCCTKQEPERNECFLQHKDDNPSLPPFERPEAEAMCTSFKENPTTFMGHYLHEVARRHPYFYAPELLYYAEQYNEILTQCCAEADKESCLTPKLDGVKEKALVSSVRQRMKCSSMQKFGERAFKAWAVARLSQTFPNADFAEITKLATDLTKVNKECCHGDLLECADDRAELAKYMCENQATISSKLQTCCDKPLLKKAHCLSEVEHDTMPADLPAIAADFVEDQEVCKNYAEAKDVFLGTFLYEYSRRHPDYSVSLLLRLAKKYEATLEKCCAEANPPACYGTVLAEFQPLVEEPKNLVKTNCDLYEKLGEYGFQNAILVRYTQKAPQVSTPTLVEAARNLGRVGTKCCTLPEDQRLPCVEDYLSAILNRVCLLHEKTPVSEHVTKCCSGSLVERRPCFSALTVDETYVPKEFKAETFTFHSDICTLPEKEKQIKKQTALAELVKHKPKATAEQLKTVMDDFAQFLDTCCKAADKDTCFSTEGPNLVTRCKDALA
Method: (§1) Blood of Bab/c mice was collected under anesthesia via heart puncture. […] Human serum was purchased from Sigma-Aldrich. In order to guarantee a stable pH, all sera were buffered with 150 mM phosphate to pH 7.4 by dissolving the necessary amounts of Na2HPO4 and NaH2PO4 directly in the serum. […] The samples were then incubated in the autosampler at 37 °C and analyzed every hour for 4 or 5 h and after 24 h. Between each sample a pure water blank was measured. For measurements with 10 min intervals the same procedure was followed, but the blank measurements were omitted. For SEC-ICP-MS measurements an Agilent 1260 Infinity system coupled to an Agilent 7800 ICP-HRMS equipped with a dynamic reaction cell was used. Oxygen (purity 5.5, Messer Austria GmbH, Gumpoldskirchen, Austria) was used as reaction gas.

albumin (human serum) = biological target: T2, albumin (human serum) (Homo sapiens, UniProt P02768); experiment: SEC-ICP-MS albumin binding in human serum; type: in vitro ADME; conditions: for Pt195 in HMWF (albumin-bound) / Pt195 in LMWF: 100 µM, 37 °C
T2 construct: Human serum was purchased from Sigma-Aldrich; tissue Sigma-Aldrich; host or cells: human serum
T2 sequence (P02768 25-609): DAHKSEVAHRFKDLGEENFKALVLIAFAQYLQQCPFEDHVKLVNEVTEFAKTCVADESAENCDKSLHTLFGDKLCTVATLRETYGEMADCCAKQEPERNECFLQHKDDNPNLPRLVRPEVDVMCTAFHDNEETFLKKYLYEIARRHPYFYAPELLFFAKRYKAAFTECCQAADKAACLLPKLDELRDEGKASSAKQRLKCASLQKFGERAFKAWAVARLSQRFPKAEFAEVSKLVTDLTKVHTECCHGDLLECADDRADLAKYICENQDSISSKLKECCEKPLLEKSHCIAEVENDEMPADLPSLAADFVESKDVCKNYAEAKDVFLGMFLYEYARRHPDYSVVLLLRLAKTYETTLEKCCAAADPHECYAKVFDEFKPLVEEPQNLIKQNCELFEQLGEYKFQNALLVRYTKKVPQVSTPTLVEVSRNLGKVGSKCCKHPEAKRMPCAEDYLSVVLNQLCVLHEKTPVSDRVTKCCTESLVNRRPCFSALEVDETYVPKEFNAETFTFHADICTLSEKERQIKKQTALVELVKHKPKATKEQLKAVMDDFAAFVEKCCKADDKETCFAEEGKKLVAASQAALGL
Method: as §1

α1-antitrypsin = biological target: T3, α1-antitrypsin (Homo sapiens, UniProt P01009); experiment: SEC-ICP-MS with single serum protein solution: α1-antitrypsin; type: binding; conditions: 200 μM α1-antitrypsin, 100 μM compound, 100 mM PB pH 7.4, 37 °C, 2 h
T3 construct: purchased Sigma-Aldrich A6150
T3 sequence (P01009 25-418): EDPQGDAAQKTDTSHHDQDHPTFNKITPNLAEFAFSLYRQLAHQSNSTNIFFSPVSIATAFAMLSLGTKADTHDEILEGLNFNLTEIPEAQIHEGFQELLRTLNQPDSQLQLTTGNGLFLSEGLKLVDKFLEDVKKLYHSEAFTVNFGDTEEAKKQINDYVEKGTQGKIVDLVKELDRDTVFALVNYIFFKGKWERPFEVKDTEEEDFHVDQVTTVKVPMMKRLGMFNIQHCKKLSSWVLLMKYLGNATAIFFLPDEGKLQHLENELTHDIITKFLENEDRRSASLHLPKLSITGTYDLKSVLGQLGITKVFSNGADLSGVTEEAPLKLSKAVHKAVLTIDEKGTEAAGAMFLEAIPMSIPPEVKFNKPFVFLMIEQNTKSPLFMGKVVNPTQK
Method: All investigated proteins were purchased from commercial suppliers: Albumin (Sigma-Aldrich, A8763), IgG (Athens Research, 16–16–090707), α1-antitrypsin (Sigma-Aldrich, A6150) and apotransferrin (Sigma-Aldrich, T1147). […] The compound stocks were diluted into the protein solution to reach a final concentration of 100 μM (27 μL protein and 3 μL compound). The samples were incubated at 37 °C for 2 h and analyzed as described for the SEC-ICP-MS studies (Tables S6 and S7).

[3] = Serum pharmacokinetics (platinum, ICP-MS) in CT26-bearing Balb/c mice; conditions: serum platinum
Method: CT26 cells (5 × 10^5 in 50 μL serum-free medium) were injected subcutaneously (s.c.) into the right flank of male Balb/c mice. […] The blood, tumor and organ collection followed the study design in Figure A. Briefly, to assess serum platinum levels, blood was collected after 5 min, 30 min, 5 h and 24 h (2 mice per time point) via the facial vein. The serum was separated by centrifugation (two times 10 min at 900 g) after 10 min clotting at room temperature. […] All collected samples were stored at −20 °C and further processed for platinum measurements via ICP-MS as follows: HNO3 (67–69%, suprapur for trace metal analysis, NORMATOM; Distributor: VWR international, Austria) and conc. H2O2 suprapur (Merck, 30%) were used without further purification. Digestion of tissue (approximately 15–30 mg gravimetrically weighted) was performed with 2 mL of approximately 20% HNO3 and 100 μL H2O2 using an open vessel graphite digestion system (coated graphite heating plate, coated sample holder-top for 25 mL vials, PFA vials and PFA lids; Labter, ODLAB; Distributor: AHF Analysentechnik AG; Germany). Digested samples were diluted in Milli-Q water (18.2 MΩ cm, Milli-Q Advantage, Darmstadt, Germany). For the ICP-MS analysis, platinum and rhenium standards were derived from CPI International (Amsterdam, The Netherlands). The total platinum content was determined with a quadrupole-based Agilent 7800 ICP-MS instrument (Agilent Technologies, Tokyo, Japan) equipped with the Agilent SPS 4 autosampler (Agilent Technologies, Tokyo, Japan) and a MicroMist nebulizer at a sample uptake rate of approximately 0.2 mL/min. An RF power of 1550 W was used as well as nickel cones. Argon was used as plasma gas (15 L/min) and as carrier gas (∼1.1 L/min). The dwell time was set to 0.1 s and the measurements were performed in 6 replicates with 100 sweeps. Rhenium served as internal standard for platinum. The Agilent MassHunter software package (Workstation Software, version C.01.04) was used for data processing.
As platinum was measured in serum, equimolar administered doses were adjusted to correspond to platinum (0.0227 mmol, 4.42 mg platinum). The area under the “concentration”–time curve (AUC) was determined from time 0 to infinity (AUCPt_0‑∞) and from time 0 to 24 h (AUCPt_0–24, based on the last observed sample at 24 h; linear-log trapezoidal calculation method). The terminal slope (λ z ) was determined based on the last two (out of four) measurements (times 5 h and 24 h).

[4] = pH 7.4, 10 min intervals, 0 min
[5] = pH 7.4, 10 min intervals, 10 min
[6] = pH 7.4, 10 min intervals, 20 min
[7] = pH 7.4, 10 min intervals, 30 min
[8] = pH 7.4, 10 min intervals, 40 min
[9] = pH 7.4, 10 min intervals, 50 min
[10] = pH 7.4, 10 min intervals, 60 min

Question: Which “Intact compound after 25 h” value ([1]; 20 mM HEPES, pH 7.4, 20 °C) does the source give for `CC(=O)[O][Pt-2]12([O]C(=O)NCCOCCOCCOCCOCCN3C(=O)C=CC3=O)([NH2+][C@@H]3CCCC[C@H]3[NH2+]1)[O]C(=O)C(=O)[O]2` [Mal-Ox-OAc, (OC-6–34)-Acetato[(1R,2R)-1,2-cyclohexane-1,2-diamino][ (14-(2,5-dioxo-2,5-dihydro-1H-pyrrol-1-yl)-3,6,9,12-tetraoxatetradecyl)-carbamato]-oxalato platinum(IV)] here?
Answer: 56% and ~60%

Question: What about the “Intact compound after 25 h” value ([1]; 20 mM MOPS, pH 7.4, 20 °C) of the same compound?
Answer: 58% and ~60%

Question: What about the “Intact compound after 25 h” value ([1]; 100 mM PB, pH 5.5, 20 °C) of the same compound?
Answer: 96%

Question: And the “Intact compound after 25 h” value ([1]; 100 mM PB, pH 6.5, 20 °C)?
Answer: 80%

Question: And the “Intact compound after 25 h” value ([1]; 100 mM PB, pH 7.4, 20 °C)?
Answer: 23%

Question: What about the “Oxaliplatin detected (released) after 25 h” value [2] of the same compound?
Answer: 18%

Question: And the “Pt195 in HMWF (albumin-bound)” value (albumin (mouse serum); [4])?
Answer: 36%

Question: What about the “Pt195 in LMWF” value (albumin (mouse serum); [4]) of the same compound?
Answer: 64%

Question: What about the “Pt195 in HMWF (albumin-bound)” value (albumin (mouse serum); [5]) of the same compound?
Answer: 58% and ~60%

Question: And the “Pt195 in LMWF” value (albumin (mouse serum); [5])?
Answer: 42%

Question: What about the “Pt195 in HMWF (albumin-bound)” value (albumin (mouse serum); [6]) of the same compound?
Answer: 68%

Question: What about the “Pt195 in LMWF” value (albumin (mouse serum); [6]) of the same compound?
Answer: 32%

Question: What about the “Pt195 in HMWF (albumin-bound)” value (albumin (mouse serum); [7]) of the same compound?
Answer: 74%

Question: What about the “Pt195 in LMWF” value (albumin (mouse serum); [7]) of the same compound?
Answer: 26%

Question: And the “Pt195 in HMWF (albumin-bound)” value (albumin (mouse serum); [8])?
Answer: 78%

Question: What about the “Pt195 in LMWF” value (albumin (mouse serum); [8]) of the same compound?
Answer: 22%

Question: What about the “Pt195 in HMWF (albumin-bound)” value (albumin (mouse serum); [9]) of the same compound?
Answer: 79%

Question: And the “Pt195 in LMWF” value (albumin (mouse serum); [9])?
Answer: 21%

Question: And the “Pt195 in HMWF (albumin-bound)” value (albumin (mouse serum); [10])?
Answer: 80%

Question: What about the “Pt195 in LMWF” value (albumin (mouse serum); [10]) of the same compound?
Answer: 20%

Question: What about the “Pt195 in LMWF” value (albumin (mouse serum); pH 7.4, 1 h intervals, 0 h) of the same compound?
Answer: 66%

Question: What about the “Pt195 in HMWF (albumin-bound)” value (albumin (mouse serum); pH 7.4, 1 h intervals, 1 h) of the same compound?
Answer: 75%

Question: And the “Pt195 in LMWF” value (albumin (mouse serum); pH 7.4, 1 h intervals, 1 h)?
Answer: 25%

Question: What about the “Pt195 in HMWF (albumin-bound)” value (albumin (mouse serum); pH 7.4, 1 h intervals, 2 h) of the same compound?
Answer: 74%

Question: And the “Pt195 in LMWF” value (albumin (mouse serum); pH 7.4, 1 h intervals, 2 h)?
Answer: 26%

Question: What about the “Pt195 in HMWF (albumin-bound)” value (albumin (mouse serum); pH 7.4, 1 h intervals, 3 h) of the same compound?
Answer: 74%

Question: And the “Pt195 in LMWF” value (albumin (mouse serum); pH 7.4, 1 h intervals, 3 h)?
Answer: 26%

Question: And the “Pt195 in HMWF (albumin-bound)” value (albumin (mouse serum); pH 7.4, 1 h intervals, 4 h)?
Answer: 74%

Question: And the “Pt195 in LMWF” value (albumin (mouse serum); pH 7.4, 1 h intervals, 4 h)?
Answer: 26%

Question: And the “Pt195 in HMWF (albumin-bound)” value (albumin (mouse serum); pH 7.4, 1 h intervals, 24 h)?
Answer: 75%

Question: And the “Pt195 in LMWF” value (albumin (mouse serum); pH 7.4, 1 h intervals, 24 h)?
Answer: 25%

Question: What about the “Pt195 in HMWF (albumin-bound)” value (albumin (human serum); pH 7.4, 0 h) of the same compound?
Answer: 29%

Question: What about the “Pt195 in LMWF” value (albumin (human serum); pH 7.4, 0 h) of the same compound?
Answer: 71%

Question: What about the “Pt195 in HMWF (albumin-bound)” value (albumin (human serum); pH 7.4, 1 h) of the same compound?
Answer: 94% and ~90%

Question: What about the “Pt195 in LMWF” value (albumin (human serum); pH 7.4, 1 h) of the same compound?
Answer: 6%

Question: And the “Pt195 in HMWF (albumin-bound)” value (albumin (human serum); pH 7.4, 2 h)?
Answer: 94%

Question: What about the “Pt195 in LMWF” value (albumin (human serum); pH 7.4, 2 h) of the same compound?
Answer: 6%

Question: What about the “Pt195 in HMWF (albumin-bound)” value (albumin (human serum); pH 7.4, 3 h) of the same compound?
Answer: 94%

Question: And the “Pt195 in LMWF” value (albumin (human serum); pH 7.4, 3 h)?
Answer: 6%

Question: And the “Pt195 in HMWF (albumin-bound)” value (albumin (human serum); pH 7.4, 4 h)?
Answer: 94%

Question: And the “Pt195 in LMWF” value (albumin (human serum); pH 7.4, 4 h)?
Answer: 6%

Question: What about the “Pt195 in HMWF (albumin-bound)” value (albumin (human serum); pH 7.4, 5 h) of the same compound?
Answer: 94%

Question: What about the “Pt195 in LMWF” value (albumin (human serum); pH 7.4, 5 h) of the same compound?
Answer: 6%

Question: And the “Pt195 in HMWF (albumin-bound)” value (albumin (human serum); pH 7.4, 24 h)?
Answer: 93%

Question: And the “Pt195 in LMWF” value (albumin (human serum); pH 7.4, 24 h)?
Answer: 7%

Question: And the Bound to albumin (albumin (human serum); from 1 to 24 h)?
Answer: ~90%

Question: What about the “Platinum in the HMWF (protein-bound)” value (α1-antitrypsin) of the same compound?
Answer: ~30%

Question: What about the Cmax ([3]; measured at tmax=0.08 h, single i.v. dose 4.42 mg/kg Pt) of the same compound?
Answer: 35.6 mg/kg

Question: What about the “Percentage of AUCPt_0-∞ extrapolated from tlast to infinity” value ([3]; tlast=24 h) of the same compound?
Answer: 27.7%

Question: And the Half-life ([3]; terminal half-life, i.v.)?
Answer: 12.2 h

Question: And the CL ([3]; total body clearance, single i.v. dose 4.42 mg/kg Pt)?
Answer: 0.00892 kg/h/kg

Question: What about the Vz ([3]; volume of distribution based on the terminal phase, i.v.) of the same compound?
Answer: 0.157 kg/kg
